Laboratory results: US20250197905A1, “LEGIONAMINIC ACID GLYCOSYLTRANSFERASES FOR CHEMOENZYMATIC SYNTHESIS OF GLYCANS AND GLYCOCONJUGATES” (The Regents of the University of California, priority 2022, published 2025)
Where “and” joins values, the source holds several entries; their conditions need not be identical. Equal values may be shown once.

What was measured:
His6-AbGtr18 [1] = test: Effects of metal ions, EDTA, and DTT on the activity of His6-AbGtr18; assay type: biochemical, A. baumannii K8; conditions: donor CMP-Leg5,7Ac2; for Effect on the activity of AbGtr18: 10 mM additive, 40° C., 30 minutes, pH 6.0
Experimental: Effects of metal ions, EDTA, and a reducing reagent DTT on the activity of His6-AbGtr18. Enzymatic assays were carried out in duplicate at 40° C. for 30 minutes in a total volume of 10 μL in citric acid-sodium citrate buffer ([…], pH 6.0) containing 1 mM CMP-Leg5,7Ac2, 1 mM GalNAcα2AA, His6-AbGtr18 (0.64 μM), and 10 mM of CaCl2), CuSO4, MgCl2, MnCl2, NiSO4, ZnCl2, ethylenediaminetetraacetic acid (EDTA), or dithiothreitol (DTT). Reactions without metal ions, EDTA, or DTT were used as controls. The reactions were quenched by adding 40 μL methanol. Samples were centrifuged, and then analyzed by UHPLC as described above for pH profile studies.

[2] = tested on: LpCLS or NmCSS, with or without PmAldolase; assay type: biochemical
MBP-AbGtr18-His6 = assay type: biochemical, A. baumannii K8
His6-AbGtr18 [3] = assay type: biochemical, A. baumannii K8

Molecule	CMP-Sia Yield (%) [2]	Sialoside yield (%) 20 h (MBP-AbGtr18-His6)	Activity of His6-AbGtr18 towards acceptor (in words) (His6-AbGtr18 [3])	Yield (%) 20 h (His6-AbGtr18 [3])	other results
O[C@H](CS)[C@H](O)CS (racemic) [DTT, dithiothreitol]	–	–	–	–	Effect on the activity of AbGtr18 (His6-AbGtr18 [1]): no significant effect
CC(=O)N[C@@H]([C@H](O)[C@H](NC(C)=O)[C@@H](O)CC(=O)C(=O)O)[C@@H](C)O [CMP-Leg5,7Ac2, 5,7-diacetamido-3,5,7,9-tetradeoxy-D-glycero-D-galacto-non-2-ulosonic acid]	>99%	72.6 ± 0.1% and 99.0 ± 0.6%	–	–	Sialoside yield (%) 0.5 h (MBP-AbGtr18-His6): 53.5 ± 0.5% and 56.6 ± 1.6%; Suitability as donor substrate for MBP-AbGtr18-His6 (in words) (MBP-AbGtr18-His6): used efficiently
[N-]=[N+]=NCC(O)C(N=[N+]=[N-])C1OC(OP(=O)(O)OCC2OC(n3ccc(N)nc3=O)C(O)C2O)(C(=O)O)CC(O)C1N=[N+]=[N-] (centres unmarked) [CMP-Neu5,7,9triN3]	–	–	–	–	Suitability as donor substrate for MBP-AbGtr18-His6 (in words) (MBP-AbGtr18-His6): limited activity
[N-]=[N+]=N[C@@H]([C@@H]1OC(OP(=O)(O)OC[C@H]2O[C@@H](n3ccc(N)nc3=O)[C@H](O)[C@@H]2O)(C(=O)O)C[C@H](O)[C@H]1N=[N+]=[N-])[C@H](O)CO (some centres unmarked) [CMP-Neu5,7diN3]	–	–	–	–	Suitability as donor substrate for MBP-AbGtr18-His6 (in words) (MBP-AbGtr18-His6): limited activity
CC(=O)NC1C(O)CC(OP(=O)(O)OCC2OC(n3ccc(N)nc3=O)C(O)C2O)(C(=O)O)OC1C(N=[N+]=[N-])C(O)CO (centres unmarked) [CMP-Neu5Ac7N3]	–	–	–	–	Suitability as donor substrate for MBP-AbGtr18-His6 (in words) (MBP-AbGtr18-His6): suitable but less efficient donor substrates
CC(=O)N[C@H]1[C@H]([C@H](O)[C@H](O)CN=[N+]=[N-])OC(OP(=O)(O)OC[C@H]2O[C@@H](n3ccc(N)nc3=O)[C@H](O)[C@@H]2O)(C(=O)O)C[C@@H]1O (some centres unmarked) [CMP-Neu5Ac9N3]	–	–	–	–	Suitability as donor substrate for MBP-AbGtr18-His6 (in words) (MBP-AbGtr18-His6): efficient
[N-]=[N+]=NCC(=O)N[C@H]1[C@H]([C@H](O)[C@H](O)CO)OC(OP(=O)(O)OC[C@H]2O[C@@H](n3ccc(N)nc3=O)[C@H](O)[C@@H]2O)(C(=O)O)C[C@@H]1O (some centres unmarked) [CMP-Neu5Az]	–	–	–	–	Suitability as donor substrate for MBP-AbGtr18-His6 (in words) (MBP-AbGtr18-His6): efficient
Nc1ccn([C@@H]2O[C@H](COP(=O)(O)O[C@@]3(C(=O)O)C[C@H](O)[C@@H](NC(=O)CO)[C@H]([C@H](O)[C@H](O)CO)O3)[C@@H](O)[C@H]2O)c(=O)n1 [CMP-Neu5Gc]	–	–	–	–	Suitability as donor substrate for MBP-AbGtr18-His6 (in words) (MBP-AbGtr18-His6): suitable but less efficient donor substrates
[N-]=[N+]=NC1C(O)CC(OP(=O)(O)OCC2OC(n3ccc(N)nc3=O)C(O)C2O)(C(=O)O)OC1C(O)C(O)CO (centres unmarked) [CMP-Neu5N3]	–	–	–	–	Suitability as donor substrate for MBP-AbGtr18-His6 (in words) (MBP-AbGtr18-His6): poor donor substrates
[Ca+2].[Cl-].[Cl-] [Ca^2+, CaCl2]	–	–	–	–	Effect on the activity of AbGtr18 (His6-AbGtr18 [1]): no significant effect
O=S(=O)([O-])[O-].[Cu+2] [Cu^2+, CuSO4]	–	–	–	–	Effect on the activity of AbGtr18 (His6-AbGtr18 [1]): decreased the reaction yields
O=C(O)CN(CCN(CC(=O)O)CC(=O)O)CC(=O)O [EDTA, ethylenediaminetetraacetic acid]	–	–	–	–	Effect on the activity of AbGtr18 (His6-AbGtr18 [1]): no effect
CC(=O)N[C@H]1[C@@H](OCCCNC(=O)OCc2ccccc2)O[C@H](CO)[C@H](O)[C@@H]1O [GalNAcαProNHCbz]	–	–	lower efficiency	82.5 ± 0.6%	Yield (%) 15 min (His6-AbGtr18 [3]): 14.6 ± 1.1%
CC(=O)N[C@H]1[C@H](OCCCNC(=O)OCc2ccccc2)O[C@H](CO)[C@H](O)[C@@H]1O [GalNAcβProNHCbz]	–	–	much lower efficiencies	33.5 ± 0.8%	Yield (%) 15 min (His6-AbGtr18 [3]): 1.7 ± 0.2%
O=[N+]([O-])c1ccc(O[C@H]2O[C@H](CO)[C@H](O)[C@H](O)[C@H]2O)cc1 [GalαpNP, 4-Nitrophenyl-α-D-galactopyranoside]	–	–	much lower efficiencies	16.7 ± 0.2%	–
CC(=O)N[C@H]1[C@@H](OCCCNC(=O)OCc2ccccc2)O[C@H](CO)[C@H](O)[C@@H]1O[C@@H]1O[C@H](CO)[C@H](O)[C@H](O)[C@H]1O [Galβ1-3GalNAcαProNHCbz]	–	–	trace activity	Trace^[e]	–
CC(=O)N[C@H]1[C@H](OCCCNC(=O)OCc2ccccc2)O[C@H](CO)[C@H](O)[C@@H]1O[C@@H]1O[C@H](CO)[C@H](O)[C@H](O)[C@H]1O [Galβ1-3GalNAcβProNHCbz]	–	–	trace activity	Trace	–
CC(=O)N[C@H]1[C@H](OCCCNC(=O)OCc2ccccc2)O[C@H](CO)[C@@H](O)[C@@H]1O[C@@H]1O[C@H](CO)[C@H](O)[C@H](O)[C@H]1O [Galβ1-3GlcNAcβProNHCbz]	–	–	much lower efficiencies	23.9 ± 0.3%	Yield (%) 15 min (His6-AbGtr18 [3]): 0.9 ± 0.1%
O=[N+]([O-])c1ccc(O[C@@H]2O[C@H](CO)[C@H](O)[C@H](O)[C@H]2O)cc1 [GalβpNP, 4-nitrophenyl β-D-galactopyranoside]	–	–	trace activity	1.6 ± 0.1%	–
CC(=O)N[C@H]1[C@@H](OCCCNC(=O)OCc2ccccc2)O[C@H](CO)[C@@H](O)[C@@H]1O [GlcNAcαProNHCbz]	–	–	much lower efficiencies	20.4 ± 0.1%	Yield (%) 15 min (His6-AbGtr18 [3]): 0.5 ± 0.1%

Molecule	CMP-Sia Yield (%) [2]	Sialoside yield (%) 20 h (MBP-AbGtr18-His6)	Activity of His6-AbGtr18 towards acceptor (in words) (His6-AbGtr18 [3])	Yield (%) 20 h (His6-AbGtr18 [3])	other results
CC(=O)N[C@H]1[C@H](OCCCNC(=O)OCc2ccccc2)O[C@H](CO)[C@@H](O)[C@@H]1O [GlcNAcβProNHCbz]	–	–	trace activity	1.0 ± 0.1%	–
O=C(O)C1(O)C[C@H](O)[C@@H](O)[C@H]([C@H](O)[C@H](O)CO)O1 (some centres unmarked) [Kdn]	>99%	9.6 ± 0.1%	–	–	Suitability as donor substrate for MBP-AbGtr18-His6 (in words) (MBP-AbGtr18-His6): poor donor substrates
CC(=O)N[C@H]1[C@H](OCCCNC(=O)OCc2ccccc2)O[C@H](CO)[C@@H](O[C@@H]2O[C@H](CO)[C@H](O)[C@H](O)[C@H]2O)[C@@H]1O [LacNAcβProNHCbz]	–	–	limited activity	7.7 ± 0.1%	–
O=C(NCCCO[C@@H]1O[C@H](CO)[C@@H](O[C@@H]2O[C@H](CO)[C@H](O)[C@H](O)[C@H]2O)[C@H](O)[C@H]1O)OCc1ccccc1 [LacβProNHCbz]	–	–	limited activity	13.8 ± 0.2%	–
C[C@@H](O)[C@@H](N=[N+]=[N-])[C@@H]1OC(O)(C(=O)O)C[C@H](O)[C@H]1N=[N+]=[N-] (some centres unmarked) [Leg5,7diN3]	>99%	68.4 ± 1.5%	–	–	Sialoside yield (%) 0.5 h (MBP-AbGtr18-His6): 44.3 ± 1.6%; Suitability as donor substrate for MBP-AbGtr18-His6 (in words) (MBP-AbGtr18-His6): suitable but less efficient donor substrates
CC(=O)NC[C@H]1OC(O)[C@@H](NC(C)=O)[C@@H](O)[C@@H]1NC(C)=O (some centres unmarked) [Man2,4,6triNAc]	24.1 ± 1.1%	2.8 ± 0.1%	–	–	–
CC(=O)N[C@H]1[C@H](O)[C@H](NC(C)=O)C(O)O[C@@H]1CO (some centres unmarked) [Man2,4diNAc]	51.5 ± 0.9%	30.3 ± 0.3%	–	–	Sialoside yield (%) 0.5 h (MBP-AbGtr18-His6): 5.5 ± 0.1%
[N-]=[N+]=NC1C(O)OC(CO)[C@@H](O)[C@@H]1O (some centres unmarked) [Man2N3]	57.6 ± 0.1%	Trace	–	–	–
CC(=O)N[C@@H]1C(O)O[C@H](CO)[C@@H](N=[N+]=[N-])[C@@H]1O (some centres unmarked) [ManNAc4N3]	84.4 ± 1.6%	72.5 ± 0.1%	–	–	Sialoside yield (%) 0.5 h (MBP-AbGtr18-His6): 50.6 ± 0.5%
CC(=O)N[C@@H]1C(O)O[C@H](CN=[N+]=[N-])[C@@H](O)[C@@H]1O (some centres unmarked) [ManNAc6N3]	>99%	96.0 ± 2.1%	–	–	Sialoside yield (%) 0.5 h (MBP-AbGtr18-His6): 55.5 ± 0.6%
CC(=O)N[C@H]1[C@@H](O)[C@H](O)[C@@H](CO)O[C@@H]1O [ManNAc]	>99%	71.1 ± 0.4%	–	–	Sialoside yield (%) 0.5 h (MBP-AbGtr18-His6): 37.6 ± 0.4%
[N-]=[N+]=NCC(=O)NC1C(O)OC(CO)C(O)C1O (centres unmarked) [ManNAz]	>99%	98.4 ± 1.8%	–	–	Sialoside yield (%) 0.5 h (MBP-AbGtr18-His6): 57.3 ± 0.4%
O=C(CO)N[C@@H]1C(O)O[C@H](CO)[C@@H](O)[C@@H]1O (some centres unmarked) [ManNGc]	>99%	71.6 ± 2.5%	–	–	Sialoside yield (%) 0.5 h (MBP-AbGtr18-His6): 13 ± 0.4%
O=C[C@@H](O)[C@@H](O)[C@H](O)[C@H](O)CO [Mannose]	77.7 ± 1.6%	5.0 ± 0.3%	–	–	–
[Cl-].[Cl-].[Mg+2] [Mg^2+, MgCl2]	–	–	–	–	Effect on the activity of AbGtr18 (His6-AbGtr18 [1]): no significant effect; Effect of increasing Mg^2+ concentration on the activity of His6-AbGtr18 (His6-AbGtr18 [1]; up to 50 mM): decrease the activity
[Cl][Mn][Cl] [Mn^2+, MnCl2]	–	–	–	–	Effect on the activity of AbGtr18 (His6-AbGtr18 [1]): almost abolished its activity completely
CC(=O)N[C@H]1[C@H]([C@@H](O)[C@@H](O)CO)O[C@@](O)(C(=O)O)C[C@@H]1O [Neu5Ac]	>99%	93.3 ± 0.6%	–	–	Sialoside yield (%) 0.5 h (MBP-AbGtr18-His6): 47.4 ± 1.7%; Suitability as donor substrate for MBP-AbGtr18-His6 (in words) (MBP-AbGtr18-His6): efficient
[Cl-].[Cl-].[Zn+2] [Zn^2+, ZnCl2]	–	–	–	–	Effect on the activity of AbGtr18 (His6-AbGtr18 [1]): almost abolished its activity completely
GalNAcα2AA	–	–	most reactive	78.1 ± 0.6%	Yield (%) 15 min (His6-AbGtr18 [3]): 35.7 ± 2.2%
